Test results: patent US10981894B2, “Melanocortin subtype-2 receptor (MC2R) antagonists and uses thereof” (Crinetics Pharmaceuticals, Inc., priority 2018, dated 2021)

Molecular target: hMC2 receptor (Homo sapiens, UniProt Q01718)
Assay: hMC2 membrane binding assay ([125I]ACTH (1-39) Tyr23, SPA)
Set-up: scale not given here
Details: crude hMC2R membranes from CRE-bla-CHO-K1 cells expressing hMC2 receptor and hMRAP; [125I]ACTH (1-39) Tyr23 0.2 nM; 1.5 hours at room temperature; read-out: MC2R binding potency
Outline: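 CRE-bla-CHO-K1 membranes co-expressing hMC2 receptor and hMRAP, preincubated with WGA PVT SPA beads in pH 7.4 HEPES/MgCl2/CaCl2/0.2% BSA buffer. Compounds (typically 0–10,000 nM final) compete with 0.2 nM [125I]ACTH(1-39) Tyr23 for 1.5 h at room temperature. SPA counts give Ki by non-linear regression.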

hMC2 receptor, sequence (Q01718 whole entry): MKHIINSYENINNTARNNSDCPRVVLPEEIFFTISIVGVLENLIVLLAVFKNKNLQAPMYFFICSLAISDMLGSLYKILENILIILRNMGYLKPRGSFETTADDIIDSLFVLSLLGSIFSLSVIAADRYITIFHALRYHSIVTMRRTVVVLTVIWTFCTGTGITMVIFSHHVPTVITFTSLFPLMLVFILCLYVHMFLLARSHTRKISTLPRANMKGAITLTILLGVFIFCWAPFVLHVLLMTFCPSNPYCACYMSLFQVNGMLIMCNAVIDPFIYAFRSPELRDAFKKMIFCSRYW
hMC2 receptor, sequence (Q8TCY5 whole entry partner): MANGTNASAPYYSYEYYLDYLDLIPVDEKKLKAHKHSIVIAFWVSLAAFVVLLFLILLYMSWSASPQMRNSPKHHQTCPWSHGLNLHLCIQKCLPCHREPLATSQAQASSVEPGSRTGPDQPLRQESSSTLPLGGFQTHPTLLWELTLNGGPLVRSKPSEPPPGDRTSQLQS

Row | SMILES | Ki [nM]
1 | CCOc1ncccc1-c1ccc(N2CCN(C(=O)C3(C(F)(F)F)CCC3)C[C@H]2CC)c(C(=O)N[C@@H]2CCNC2)n1 [Compound 1-280, 2′-ethoxy-5-[(2R)-2-ethyl-4-[1-(trifluoromethyl)cyclobutanecarbonyl]piperazin-1-yl]-N-[(3R)-pyrrolidin-3-yl]-[2,3′-bipyridine]-6-carboxamide] | < 10
2 | CCOc1ncccc1-c1ccc(N2CCN(C(=O)C34CCC(C(F)(F)F)(CC3)CC4)C[C@H]2CC)c(C(=O)N[C@@H]2CCN(C)C2)n1 [Compound 1-282, 2′-ethoxy-5-[(2R)-2-ethyl-4-[4-(trifluoromethyl)bicyclo[2.2.2]octane-1-carbonyl]piperazin-1-yl]-N-[(3R)-1-methylpyrrolidin-3-yl]-[2,3′-bipyridine]-6-carboxamide] | < 10
3 | CCOc1ncccc1-c1ccc(N2CCN(C(=O)C3(C(F)(F)F)CCC3)C[C@H]2CC)c(C(=O)N[C@@H]2CCN(C)C2)n1 [Compound 1-283, 2′-ethoxy-5-[(2R)-2-ethyl-4-[1-(trifluoromethyl)cyclobutanecarbonyl]piperazin-1-yl]-N-[(3R)-1-methylpyrrolidin-3-yl]-[2,3′-bipyridine]-6-carboxamide] | < 10
4 | CCOc1ncccc1-c1ccc(N2CCN(C(=O)[C@H]3CC[C@@H](C(F)(F)F)CC3)C[C@H]2CC)c(C(=O)N[C@@H]2CCN(C)C2)n1 [Compound 1-286, 2′-ethoxy-5-[(2R)-2-ethyl-4-[cis-4-(trifluoromethyl)cyclohexanecarbonyl]piperazin-1-yl]-N-[(3R)-1-methylpyrrolidin-3-yl]-[2,3′-bipyridine]-6-carboxamide] | < 10
5 | CCOc1ccccc1-c1ccc(N2CCN(C(=O)c3ccc(Cl)cc3C(F)F)C[C@H]2CC)c(C(=O)N[C@@H]2CCN(C)C2)n1 [Compound 1-287, 3-[(2R)-4-[4-chloro-2-(difluoromethyl)benzoyl]-2-ethylpiperazin-1-yl]-6-(2-ethoxyphenyl)-N-[(3R)-1-methylpyrrolidin-3-yl]pyridine-2-carboxamide] | < 10
6 | CCOc1ccccc1-c1ccc(N2CCN(C(=O)c3ccc(Cl)cc3C(F)F)C[C@H]2CC)c(C(=O)N[C@@H]2CCNC2)n1 [Compound 1-288, 3-[(2R)-4-[4-chloro-2-(difluoromethyl)benzoyl]-2-ethylpiperazin-1-yl]-6-(2-ethoxyphenyl)-N-[(3R)-pyrrolidin-3-yl]pyridine-2-carboxamide] | < 10
7 | CCOc1ncccc1-c1ccc(N2CCN(C(=O)c3ccc(OC)nc3C(F)(F)F)C[C@H]2CC)c(C(=O)N[C@@H]2CNC[C@H]2F)n1 [Compound 1-289, 2′-ethoxy-5-[(2R)-2-ethyl-4-[6-methoxy-2-(trifluoromethyl)pyridine-3-carbonyl]piperazin-1-yl]-N-[(3R,4R)-4-fluoropyrrolidin-3-yl]-[2,3′-bipyridine]-6-carboxamide] | < 10
8 | CCOc1ncccc1-c1ccc(N2CCN(C(=O)c3ccc(OC)nc3C(F)(F)F)C[C@H]2CC)c(C(=O)N[C@@H]2CN(C)C[C@H]2F)n1 [Compound 1-290, 2′-ethoxy-5-[(2R)-2-ethyl-4-[6-methoxy-2-(trifluoromethyl)pyridine-3-carbonyl]piperazin-1-yl]-N-[(3R,4R)-4-fluoro-1-methylpyrrolidin-3-yl]-[2,3′-bipyridine]-6-carboxamide] | < 10
9 | CCOc1ncccc1-c1ccc(N2CCN(C(=O)c3ccc(OC)nc3C(F)(F)F)C[C@H]2CC)c(C(=O)N[C@H]2CNC[C@H]2F)n1 [Compound 1-291, 2′-ethoxy-5-[(2R)-2-ethyl-4-[6-methoxy-2-(trifluoromethyl)pyridine-3-carbonyl]piperazin-1-yl]-N-[(3S,4R)-4-fluoropyrrolidin-3-yl]-[2,3′-bipyridine]-6-carboxamide] | < 10
10 | CCOc1ccccc1-c1ccc(N2CCN(C(=O)c3ccc(F)cc3C(F)F)C[C@H]2CC)c(C(=O)N[C@@H]2CCNC2)n1 [Compound 1-292, 3-[(2R)-4-[2-(difluoromethyl)-4-fluorobenzoyl]-2-ethylpiperazin-1-yl]-6-(2-ethoxyphenyl)-N-[(3R)-pyrrolidin-3-yl]pyridine-2-carboxamide] | < 10
11 | CCOc1ccccc1-c1ccc(N2CCN(C(=O)c3ccc(F)cc3C(F)F)C[C@H]2CC)c(C(=O)N[C@@H]2CCN(C)C2)n1 [Compound 1-293, 3-[(2R)-4-[2-(difluoromethyl)-4-fluorobenzoyl]-2-ethylpiperazin-1-yl]-6-(2-ethoxyphenyl)-N-[(3R)-1-methylpyrrolidin-3-yl]pyridine-2-carboxamide] | < 10
12 | CCOc1ncccc1-c1ccc(N2CCN(C(=O)c3ccc(OC)nc3C(F)(F)F)C[C@H]2CC)c(C(=O)N[C@H]2CN(C)C[C@H]2F)n1 [Compound 1-296, 2′-ethoxy-5-[(2R)-2-ethyl-4-[6-methoxy-2-(trifluoromethyl)pyridine-3-carbonyl]piperazin-1-yl]-N-[(3S,4R)-4-fluoro-1-methylpyrrolidin-3-yl]-[2,3′-bipyridine]-6-carboxamide] | < 10
13 | CCOc1ncccc1-c1ccc(N2CCN(C(=O)C3(C(F)(F)F)CC4CCC3C4)C[C@H]2CC)c(C(=O)N[C@@H]2CCNC2)n1 (stereo partly drawn) [Compound 1-297, 2′-ethoxy-5-[(2R)-2-ethyl-4-[2-(trifluoromethyl)bicyclo[2.2.1]heptane-2-carbonyl]piperazin-1-yl]-N-[(3R)-pyrrolidin-3-yl]-[2,3′-bipyridine]-6-carboxamide] | < 10
14 | CCOc1ncccc1-c1ccc(N2CCN(C(=O)C3(C(F)(F)F)CC(F)(F)C3)C[C@H]2CC)c(C(=O)N[C@@H]2CCNC2)n1 [Compound 1-298, 5-[(2R)-4-[3,3-difluoro-1-(trifluoromethyl)cyclobutanecarbonyl]-2-ethylpiperazin-1-yl]-2′-ethoxy-N-[(3R)-pyrrolidin-3-yl]-[2,3′-bipyridine]-6-carboxamide] | < 10
15 | CCOc1ncccc1-c1ccc(N2CCN(C(=O)[C@H]3CC[C@@H](C(F)(F)F)CC3)C[C@H]2CC)c(C(=O)N[C@@H]2CCNC2)n1 [Compound 1-299, 2′-ethoxy-5-[(2R)-2-ethyl-4-[cis-4-(trifluoromethyl)cyclohexanecarbonyl]piperazin-1-yl]-N-[(3R)-pyrrolidin-3-yl]-[2,3′-bipyridine]-6-carboxamide] | < 10
16 | CCOc1ccccc1-c1ccc(N2CCN(C(=O)C3(C(F)(F)F)CCCC3)C[C@H]2CC)c(C(=O)N[C@@H]2CCNC2)n1 [Compound 1-304, 6-(2-ethoxyphenyl)-3-[(2R)-2-ethyl-4-[1-(trifluoromethyl)cyclopentanecarbonyl]piperazin-1-yl]-N-[(3R)-pyrrolidin-3-yl]pyridine-2-carboxamide] | < 10
17 | CCOc1ccccc1-c1ccc(N2CCN(C(=O)N3CCCC3C(C)(C)C)C[C@H]2CC)c(C(=O)N[C@@H]2CCNC2)n1 (stereo partly drawn) [Compound 1-305, 3-[(2R)-4-(2-tert-butylpyrrolidine-1-carbonyl)-2-ethylpiperazin-1-yl]-6-(2-ethoxyphenyl)-N-[(3R)-pyrrolidin-3-yl]pyridine-2-carboxamide] | < 10
18 | CCOc1ncccc1-c1ccc(N2CCN(C(=O)N3CCC[C@H]3C(F)(F)F)C[C@H]2CC)c(C(=O)N[C@@H]2CCNC2)n1 [Compound 1-306, 2′-ethoxy-5-[(2R)-2-ethyl-4-[(2S)-2-(trifluoromethyl)pyrrolidine-1-carbonyl]piperazin-1-yl]-N-[(3R)-pyrrolidin-3-yl]-[2,3′-bipyridine]-6-carboxamide] | < 10
19 | CCOc1ncccc1-c1ccc(N2CCN(C(=O)OC(C(C)(C)C)C(F)(F)F)C[C@H]2CC)c(C(=O)N[C@@H]2CCNC2)n1 (stereo partly drawn) [Compound 1-312, 1,1,1-trifluoro-3,3-dimethylbutan-2-yl (3R)-4-(2′-ethoxy-6-{[(3R)-pyrrolidin-3-yl]carbamoyl}-[2,3′-bipyridin]-5-yl)-3-ethylpiperazine-1-carboxylate] | < 10
20 | CCOc1ncccc1-c1ccc(N2CCN(C(=O)C3(C(F)(F)F)CCCC3)C[C@H]2CC)c(C(=O)NCC2CN(C)C2)n1 [Compound 1-313, 2′-ethoxy-5-[(2R)-2-ethyl-4-[1-(trifluoromethyl)cyclopentanecarbonyl]piperazin-1-yl]-N-[(1-methylazetidin-3-yl)methyl]-[2,3′-bipyridine]-6-carboxamide] | < 10
21 | CCOc1ncccc1-c1ccc(N2CCN(C(=O)C34CCC(CC3)C4(C)C)C[C@H]2CC)c(C(=O)N[C@@H]2CCNC2)n1 [Compound 1-314, 5-[(2R)-4-{7,7-dimethylbicyclo[2.2.1]heptane-1-carbonyl}-2-ethylpiperazin-1-yl]-2′-ethoxy-N-[(3R)-pyrrolidin-3-yl]-[2,3′-bipyridine]-6-carboxamide] | < 10
22 | CC[C@@H]1CN(C(=O)N2CCC[C@H]2C(C)(C)C)CCN1c1ccc(-c2ccccc2OC)nc1C(=O)N[C@@H]1CCNC1 [Compound 1-315, 3-[(2R)-4-[(2S)-2-tert-butylpyrrolidine-1-carbonyl]-2-ethylpiperazin-1-yl]-6-(2-methoxyphenyl)-N-[(3R)-pyrrolidin-3-yl]pyridine-2-carboxamide] | < 10
23 | CCOc1ncccc1-c1ccc(N2CCN(C(=O)N3CCC[C@H]3C(C)(C)F)C[C@H]2CC)c(C(=O)N[C@@H]2CCNC2)n1 [Compound 1-320, 2′-ethoxy-5-[(2R)-2-ethyl-4-[(2S)-2-(2-fluoropropan-2-yl)pyrrolidine-1-carbonyl]piperazin-1-yl]-N-[(3R)-pyrrolidin-3-yl]-[2,3′-bipyridine]-6-carboxamide] | < 10
24 | CCOc1ncccc1-c1ccc(N2CCN(C(=O)C3(C(F)(F)F)CCCC3)C[C@H]2CC)c(C(=O)N[C@H]2CCNC2)n1 [Compound 1-321, 2′-ethoxy-5-[(2R)-2-ethyl-4-[1-(trifluoromethyl)cyclopentanecarbonyl]piperazin-1-yl]-N-[(3S)-pyrrolidin-3-yl]-[2,3′-bipyridine]-6-carboxamide] | < 10
